Test results as given in ChEMBL document CHEMBL5325415, “Falcipains: Biochemistry, target validation and structure-activity relationship studies of inhibitors as antimalarials” (Eur J Med Chem, 2023).
In brackets after ≈: the same amount, converted by molar mass.

target: T1, Falcipain 2 (Plasmodium falciparum, UniProt Q9N6S8); assay: Inhibition of Plasmodium falciparum FP-2 using Cbz-Phe-Arg-AMC as substrate pretreated with enzyme for 10 mins followed by substrate addition and measured after 10 mins by fluorescence based analysis; settings: not given
T1 sequence (Q9N6S8 whole entry): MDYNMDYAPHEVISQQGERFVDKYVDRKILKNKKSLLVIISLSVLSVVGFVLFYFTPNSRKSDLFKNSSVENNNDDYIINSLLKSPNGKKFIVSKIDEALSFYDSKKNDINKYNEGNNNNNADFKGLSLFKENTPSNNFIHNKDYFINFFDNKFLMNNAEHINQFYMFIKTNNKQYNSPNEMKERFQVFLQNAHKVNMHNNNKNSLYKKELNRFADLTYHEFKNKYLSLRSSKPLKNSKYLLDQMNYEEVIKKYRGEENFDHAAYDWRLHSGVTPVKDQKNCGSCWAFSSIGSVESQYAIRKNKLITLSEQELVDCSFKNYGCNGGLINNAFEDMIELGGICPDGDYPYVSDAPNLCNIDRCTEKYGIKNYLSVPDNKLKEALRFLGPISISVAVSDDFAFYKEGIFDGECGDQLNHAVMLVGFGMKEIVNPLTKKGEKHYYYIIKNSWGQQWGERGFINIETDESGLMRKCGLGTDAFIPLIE

| Compound | IC50 |
| --- | --- |
| Cc1ccc(-c2nn(-c3ccccc3)cc2/C=C/c2nnc(-c3ccc([N+](=O)[O-])cc3)o2)cc1 | 16 µM |
| Cc1ccc(-c2nn(-c3ccccc3)cc2/C=C/c2nnc(-c3ccc(Cl)cc3)o2)cc1 | 20 µM |
| C(=C\c1cn(-c2ccccc2)nc1-c1ccccc1)/c1nnc(-c2c[nH]c3ccccc23)o1 | 7 µM |
| Cc1ccc(-c2nn(-c3ccccc3)cc2/C=C/c2nnc(-c3ccc(Cl)cc3Cl)o2)cc1 | 110 µM |
| C(=C\c1cn(-c2ccccc2)nc1-c1ccccc1)/c1nnc(-c2ccco2)o1 | 14 µM |

target: T1, Falcipain 2; assay: Inhibition of Plasmodium falciparum Itg2 trophozite extracts FP-2 using Z-phe-Arg-AMC as substrate pretreated with enzyme for 30 mins followed by substrate addition and measured for 30 mins by spectrofluorometry; settings: not given

| Compound | IC50 |
| --- | --- |
| Oc1ccc(-c2nccc3ccc(Cc4ccccc4)cc23)cc1 | 8 µM |
| COc1cc2ccnc(-c3ccc(OCc4ccccc4)cc3)c2cc1OC | 3 µM |
| COc1ccc(-c2nccc3ccc(Cc4ccccc4)cc23)cc1 | 10 µM |

test system: Plasmodium falciparum; assay: Antimalarial activity against Chloroquine-resistant Plasmodium falciparum RKL9 infected in human erythrocytes assessed as inhibition of parasite growth incubated for 72 hrs by Giemsa staining based analysis; format: functional, organism-based; settings: RKL9, Erythrocyte

| Compound | IC50 |
| --- | --- |
| COc1ccc(/C=C(\C#N)c2nc3ccccc3[nH]2)cc1O | 5.46 µM |
| N#C/C(=C\c1cccc(Br)c1)c1nc2ccccc2[nH]1 | 43.4 µM |
| N#C/C(=C\c1cccc(F)c1)c1nc2ccccc2[nH]1 | 53.3 µM |

target: T2, Falcipain 2 (Plasmodium falciparum) (UniProt Q9N6S8); assay: Inhibition of Plasmodium falciparum FP-2 using Z-Leu-Arg-AMC as substrate at 10 uM pretreated with enzyme for 30 mins followed by substrate addition and measured for 30 mins by spectrofluorometry; settings: time 60.0 min
T2 sequence (whole entry): T1 sequence (Q9N6S8 whole entry)

| Compound | inhibition |
| --- | --- |
| C=CCn1c(SCC(=O)Nc2sc3c(c2C(N)=O)CCC3)nc2sc3c(c2c1=O)CCCC3 | 82.2% |
| NC(=O)c1c(NC(=O)CSc2nc3scc(-c4ccccc4)c3c(=O)n2C2CCCCC2)sc2c1CCC2 | 92.7% |
| C=CCn1c(SCC(=O)Nc2sc3c(c2C(N)=O)CCC3)nc2scc(-c3ccc(Cl)cc3)c2c1=O | 85.7% |
| C=CCn1c(SCC(=O)Nc2sc3c(c2C(N)=O)CCC3)nc2scc(-c3cccc([N+](=O)[O-])c3)c2c1=O | 53% |
| O=C(N[C@H](Cc1c[nH]c2ccccc12)C(=O)NCc1ccccc1)Oc1ccccc1 | 29.4% |
| O=C(Cc1ccccc1)N[C@H](Cc1c[nH]c2ccccc12)C(=O)NCc1ccccc1 | 25.7% |
| O=C(N[C@H](Cc1c[nH]c2ccccc12)C(=O)NCc1ccc([N+](=O)[O-])cc1)Oc1ccccc1 | 49.5% |
| C=CCn1c(SCC(=O)Nc2sc3c(c2C(N)=O)CCC3)nc2scc(-c3ccccc3)c2c1=O | 88.7% |
| COC(=O)c1ccc(CNC(=O)[C@@H](Cc2c[nH]c3ccccc23)NC(=O)Oc2ccccc2)cc1 | 32.9% |

target: T1, Falcipain 2; assay: Inhibition of Plasmodium falciparum FP2 using ZFR-AMC as substrate preincubated with enzyme for 10 mins followed by substrate addition and measured for 30 mins by fluorimetric analysis; settings: not given

| Compound | IC50 |
| --- | --- |
| Fc1ccc(-n2cc(COc3ccnc4cc(Cl)ccc34)nn2)cc1Cl | 45.1 µM |
| COc1ccc(-c2cc(C(=O)N3CCN(S(=O)(=O)c4ccc(NC(C)=O)cc4)CC3)c3ccccc3n2)cc1 | 2.14 µM |
| Fc1ccccc1-n1cc(COc2ccnc3cc(Cl)ccc23)nn1 | 107 µM |
| Fc1ccc(-n2cc(COc3ccnc4cc(Cl)ccc34)nn2)c(F)c1 | 25.4 µM |
| O=[N+]([O-])c1ccc(-n2cc(COc3ccnc4cc(Cl)ccc34)nn2)cc1 | 16.2 µM |
| O=C(c1cc(-c2ccccc2)nc2ccccc12)N1CCN(c2cc(=O)[nH]c3ccccc23)CC1 | 13 µM |
| COc1ccc(-n2cc(COc3ccnc4cc(Cl)ccc34)nn2)cc1 | 25.4 µM |
| O=C(c1cc(-c2ccccc2)nc2ccccc12)N1CCN(S(=O)(=O)c2ccc(Cl)cc2Cl)CC1 | 4.2 µM |
| Cc1ccc(-n2cc(COc3ccnc4cc(Cl)ccc34)nn2)cc1 | 26.6 µM |
| O=C(c1cc(Cl)nc2ccccc12)N1CCN(c2ccnc3cc(Cl)ccc23)CC1 | 4.78 µM |
| CC(=O)Nc1ccc(S(=O)(=O)N2CCN(C(=O)c3cc(-c4ccc(OC(F)(F)F)cc4)nc4ccccc34)CC2)cc1 | 2.64 µM |
| CC(=O)Nc1ccc(S(=O)(=O)N2CCN(C(=O)c3cc(Cl)nc4ccccc34)CC2)cc1 | 7.37 µM |
| Fc1ccc(-n2cc(COc3ccnc4cc(Cl)ccc34)nn2)cc1F | 25.6 µM |

test system: Plasmodium falciparum; assay: Antimalarial activity against chloroquine-sensitive Plasmodium falciparum 3D7 infected in RBC measured after 24 to 30 hrs by microscopic analysis; format: functional, organism-based; settings: 3D7, Erythrocyte

| Compound | IC50 |
| --- | --- |
| Cc1ccc(-c2nn(-c3ccccc3)cc2/C=C/c2nnc(-c3ccc([N+](=O)[O-])cc3)o2)cc1 | 0.486 µg/mL (≈ 1.08 µM) |
| Cc1ccc(-c2nn(-c3ccccc3)cc2/C=C/c2nnc(-c3ccc(Cl)cc3)o2)cc1 | 0.486 µg/mL (≈ 1.11 µM) |
| C(=C\c1cn(-c2ccccc2)nc1-c1ccccc1)/c1nnc(-c2c[nH]c3ccccc23)o1 | 0.245 µg/mL (≈ 0.57 µM) |
| Cc1ccc(-c2nn(-c3ccccc3)cc2/C=C/c2nnc(-c3ccc(Cl)cc3Cl)o2)cc1 | 0.486 µg/mL (≈ 1.03 µM) |
| C(=C\c1cn(-c2ccccc2)nc1-c1ccccc1)/c1nnc(-c2ccco2)o1 | 0.248 µg/mL (≈ 0.652 µM) |

target: T1, Falcipain 2; assay: Inhibition of Plasmodium falciparum FP-2 using Z-Leu-Arg-AMC as substrate pretreated with enzyme for 30 mins followed by substrate addition and measured for 30 mins by spectrofluorometry; settings: not given

| Compound | IC50 |
| --- | --- |
| C=CCn1c(SCC(=O)Nc2sc3c(c2C(N)=O)CCC3)nc2sc3c(c2c1=O)CCCC3 | 5.77 µM |
| C[C@H]1[C@H](OC(=O)c2ccc(/C=N/NC(=O)Nc3ccccc3F)cc2)O[C@@H]2O[C@@]3(C)CC[C@H]4[C@H](C)CC[C@@H]1[C@@]24OO3 | 0.47 µM |
| C[C@H]1[C@@H](Oc2ccc(/C=N/NC(=S)Nc3ccccc3F)cc2)O[C@@H]2O[C@@]3(C)CC[C@H]4[C@H](C)CC[C@@H]1[C@@]24OO3 | 2.51 µM |
| NC(=O)c1c(NC(=O)CSc2nc3scc(-c4ccccc4)c3c(=O)n2C2CCCCC2)sc2c1CCC2 | 1.46 µM |
| C[C@H]1[C@H](OC(=O)c2ccc(/C=N/NC(=O)Nc3ccc(F)cc3)cc2)O[C@@H]2O[C@@]3(C)CC[C@H]4[C@H](C)CC[C@@H]1[C@@]24OO3 | 0.65 µM |
| CCOc1cccc(NC(=S)N/N=C/c2ccc(O[C@H]3O[C@@H]4O[C@@]5(C)CC[C@H]6[C@H](C)CC[C@@H]([C@H]3C)[C@@]46OO5)cc2)c1 | 0.52 µM |
| C=CCn1c(SCC(=O)Nc2sc3c(c2C(N)=O)CCC3)nc2scc(-c3ccc(Cl)cc3)c2c1=O | 2.95 µM |
| C=CCn1c(SCC(=O)Nc2sc3c(c2C(N)=O)CCC3)nc2scc(-c3cccc([N+](=O)[O-])c3)c2c1=O | 11.8 µM |
| O=C(N[C@H](Cc1c[nH]c2ccccc12)C(=O)NCc1ccccc1)Oc1ccccc1 | 29.7 µM |
| O=C(Cc1ccccc1)N[C@H](Cc1c[nH]c2ccccc12)C(=O)NCc1ccccc1 | 39.4 µM |
| CCOc1ccc(NC(=O)N/N=C/c2ccc(C(=O)O[C@@H]3O[C@@H]4O[C@@]5(C)CC[C@H]6[C@H](C)CC[C@@H]([C@H]3C)[C@@]46OO5)cc2)cc1 | 0.29 µM |
| O=C(N[C@H](Cc1c[nH]c2ccccc12)C(=O)NCc1ccc([N+](=O)[O-])cc1)Oc1ccccc1 | 10 µM |
| Cc1ccc(NC(=S)N/N=C/c2ccc(O[C@H]3O[C@@H]4O[C@@]5(C)CC[C@H]6[C@H](C)CC[C@@H]([C@H]3C)[C@@]46OO5)cc2)c(C)c1 | 1.35 µM |
| Cc1ccc(NC(=O)N/N=C/c2ccc(O[C@H]3O[C@@H]4O[C@@]5(C)CC[C@H]6[C@H](C)CC[C@@H]([C@H]3C)[C@@]46OO5)cc2)c(C)c1 | 1.03 µM |
| C=CCn1c(SCC(=O)Nc2sc3c(c2C(N)=O)CCC3)nc2scc(-c3ccccc3)c2c1=O | 2.81 µM |
| COC(=O)c1ccc(CNC(=O)[C@@H](Cc2c[nH]c3ccccc23)NC(=O)Oc2ccccc2)cc1 | 13.3 µM |
| Cc1cc(C)cc(NC(=O)N/N=C/c2ccc(C(=O)O[C@@H]3O[C@@H]4O[C@@]5(C)CC[C@H]6[C@H](C)CC[C@@H]([C@H]3C)[C@@]46OO5)cc2)c1 | 0.57 µM |

test system: Plasmodium falciparum; assay: Antimalarial activity against chloroquine-resistant Plasmodium falciparum RKL9 infected in RBC measured after 24 to 30 hrs by microscopic analysis; format: functional, organism-based; settings: RKL9, Erythrocyte

| Compound | IC50 |
| --- | --- |
| Cc1ccc(-c2nn(-c3ccccc3)cc2/C=C/c2nnc(-c3ccc([N+](=O)[O-])cc3)o2)cc1 | 1.57 µg/mL (≈ 3.5 µM) |
| Cc1ccc(-c2nn(-c3ccccc3)cc2/C=C/c2nnc(-c3ccc(Cl)cc3)o2)cc1 | 1.57 µg/mL (≈ 3.58 µM) |
| C(=C\c1cn(-c2ccccc2)nc1-c1ccccc1)/c1nnc(-c2c[nH]c3ccccc23)o1 | 0.724 µg/mL (≈ 1.69 µM) |
| Fc1ccc(-c2nn(-c3ccccc3)cc2/C=C/c2nnc(-c3c[nH]c4ccccc34)o2)cc1 | 1.37 µg/mL (≈ 3.07 µM) |
| Cc1ccc(-c2nn(-c3ccccc3)cc2/C=C/c2nnc(-c3ccc(Cl)cc3Cl)o2)cc1 | 0.902 µg/mL (≈ 1.91 µM) |
| C(=C\c1cn(-c2ccccc2)nc1-c1ccccc1)/c1nnc(-c2ccco2)o1 | 0.863 µg/mL (≈ 2.27 µM) |

test system: Plasmodium falciparum; assay: Antiplasmodial activity against Plasmodium falciparum 3D7 infected in human erythrocytes assessed as growth inhibition measured after 52 hrs by SYBR green dye based assay; format: functional, organism-based; settings: 3D7, Erythrocyte

| Compound | EC50 |
| --- | --- |
| Fc1ccc(-n2cc(COc3ccnc4cc(Cl)ccc34)nn2)cc1Cl | 406 µM |
| COc1ccc(-c2cc(C(=O)N3CCN(S(=O)(=O)c4ccc(NC(C)=O)cc4)CC3)c3ccccc3n2)cc1 | 0.81 µM |
| Fc1ccccc1-n1cc(COc2ccnc3cc(Cl)ccc23)nn1 | 66.6 µM |
| Fc1ccc(-n2cc(COc3ccnc4cc(Cl)ccc34)nn2)c(F)c1 | 159 µM |
| O=[N+]([O-])c1ccc(-n2cc(COc3ccnc4cc(Cl)ccc34)nn2)cc1 | 49.9 µM |
| O=C(c1cc(-c2ccccc2)nc2ccccc12)N1CCN(c2cc(=O)[nH]c3ccccc23)CC1 | 20.2 µM |
| COc1ccc(-n2cc(COc3ccnc4cc(Cl)ccc34)nn2)cc1 | 51.7 µM |
| O=C(c1cc(-c2ccccc2)nc2ccccc12)N1CCN(S(=O)(=O)c2ccc(Cl)cc2Cl)CC1 | 20 µM |
| Cc1ccc(-n2cc(COc3ccnc4cc(Cl)ccc34)nn2)cc1 | 49.5 µM |
| O=C(c1cc(Cl)nc2ccccc12)N1CCN(c2ccnc3cc(Cl)ccc23)CC1 | 1.05 µM |
| CC(=O)Nc1ccc(S(=O)(=O)N2CCN(C(=O)c3cc(-c4ccc(OC(F)(F)F)cc4)nc4ccccc34)CC2)cc1 | 1.43 µM |
| CC(=O)Nc1ccc(S(=O)(=O)N2CCN(C(=O)c3cc(Cl)nc4ccccc34)CC2)cc1 | 1.95 µM |
| Fc1ccc(-n2cc(COc3ccnc4cc(Cl)ccc34)nn2)cc1F | 21.9 µM |

test system: Plasmodium falciparum; assay: Antimalarial activity against Chloroquine-sensitive Plasmodium falciparum 3D7 infected in human erythrocytes assessed as inhibition of parasite growth incubated for 72 hrs by Giemsa staining based analysis; format: functional, organism-based; settings: 3D7, Erythrocyte

| Compound | IC50 |
| --- | --- |
| N#C/C(=C\c1ccc([N+](=O)[O-])cc1)c1nc2ccccc2[nH]1 | 68.9 µM |
| COc1ccc(/C=C(\C#N)c2nc3ccccc3[nH]2)cc1O | 1.61 µM |
| N#C/C(=C\c1cccc(Cl)c1)c1nc2ccccc2[nH]1 | 24.8 µM |
| N#C/C(=C\c1cccc(Br)c1)c1nc2ccccc2[nH]1 | 14.4 µM |
| N#C/C(=C\c1ccc(O)cc1)c1nc2ccccc2[nH]1 | 47.6 µM |
| N#C/C(=C\c1cccc(F)c1)c1nc2ccccc2[nH]1 | 22.2 µM |
| N#C/C(=C\c1cccc([N+](=O)[O-])c1)c1nc2ccccc2[nH]1 | 64.8 µM |
